Assay results as given in patent publication US8580545B2, “Biodegradable linkers for molecular therapies” (The Children's Hospital of Philadelphia, priority 2004, dated 2013).

Experiment: Hydrolysis of the ester bond of the cross-linker (model experiments)
Settings: 37° C.

t1/2 of the ester bond hydrolysis | Structure (SMILES)
several weeks | O=C(CCSSc1ccccn1)NCCCOC(=O)CCCCC(=O)ON1C(=O)CC(S(=O)(=O)[O-])C1=O.[Na+] (centres unmarked) [cross-linker 1]
several days | O=C(CCCCC(=O)ON1C(=O)CC(S(=O)(=O)[O-])C1=O)NCC(=O)OCCSSc1ccccn1.[Na+] (centres unmarked) [cross-linker 2]
